By IC50 is commonly meant the point on the concentration scale where inhibition reaches its midpoint.

This note sets out measurements from patent US11229623B2 (GlaxoSmithKline Intellectual Property (No.2) Limited, priority 2016, dated 2022).

Counter-ions that a name gives are not always drawn.

In one experiment the target is T1, human TRPV4 (Homo sapiens, UniProt Q9HBA0).
T1 construct: expressed in transfected cells; host or cells: BHK/AC9 cells transduced with BacMam virus
T1 sequence (Q9HBA0 whole entry): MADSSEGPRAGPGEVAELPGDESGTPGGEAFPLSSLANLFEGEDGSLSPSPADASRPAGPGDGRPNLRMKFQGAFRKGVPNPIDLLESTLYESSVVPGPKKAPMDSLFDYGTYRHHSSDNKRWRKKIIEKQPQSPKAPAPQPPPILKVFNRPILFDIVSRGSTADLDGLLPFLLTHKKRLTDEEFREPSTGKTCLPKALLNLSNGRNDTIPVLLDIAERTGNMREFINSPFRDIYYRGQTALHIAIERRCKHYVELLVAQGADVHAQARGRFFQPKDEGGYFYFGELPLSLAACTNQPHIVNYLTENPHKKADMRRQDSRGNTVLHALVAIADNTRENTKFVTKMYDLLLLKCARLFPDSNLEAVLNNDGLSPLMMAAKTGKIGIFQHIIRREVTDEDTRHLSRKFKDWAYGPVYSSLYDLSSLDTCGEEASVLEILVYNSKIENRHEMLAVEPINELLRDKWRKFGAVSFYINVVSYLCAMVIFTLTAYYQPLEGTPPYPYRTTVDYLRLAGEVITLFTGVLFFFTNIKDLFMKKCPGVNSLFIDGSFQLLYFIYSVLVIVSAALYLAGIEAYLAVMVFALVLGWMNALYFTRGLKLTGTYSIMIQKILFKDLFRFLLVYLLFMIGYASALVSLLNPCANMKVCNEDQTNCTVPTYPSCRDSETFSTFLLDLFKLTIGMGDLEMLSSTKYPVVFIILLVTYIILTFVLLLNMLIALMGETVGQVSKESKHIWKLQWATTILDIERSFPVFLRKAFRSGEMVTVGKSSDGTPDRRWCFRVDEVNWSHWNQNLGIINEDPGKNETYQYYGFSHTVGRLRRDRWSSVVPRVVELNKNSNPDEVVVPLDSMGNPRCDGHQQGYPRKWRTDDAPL
The experiment in a line: FLIPR assay for hTRPV4 expressed in BHK cells: inhibition of Agonist Compound-induced calcium signal. The experiment is classed as cell-based.
Conditions: not given
The procedure: FLIPR Assay for hTRPV4 Expressed in BHK Cells:
TRPV4 channel activation results in an influx of divalent and monovalent cations including calcium. The resulting changes in intracellular calcium were monitored using a calcium specific fluorescent dye Fluo-4 (MDS Analytical Technologies). BHK/AC9 cells transduced with BacMam virus expressing the human TRPV4 gene at a MOI of 78 were plated in a 384 well poly-D lysine coated plate (15,000 cells/well in 50 μL culture medium containing DMEM/F12 with 15 mM HEPES, 10% FBS, 1% Penicillin-Streptomycin and 1% L-glutamine). Cells were incubated for 24 hours at 37° C. and 5% CO2. Culture medium was then aspirated using a Tecan plate-washer and replaced with 20 μL/well of dye loading buffer: HBSS, 500 μM Brilliant Black (MDS Analytical Technologies), and 2 μM Fluo-4 AM. Dye loaded plates were then incubated in the dark at room temperature for 1-1.5 hours.
For the molecule `C[C@@H](O)[C@]1(O)CN(S(=O)(=O)c2ccc(Cl)cn2)C[C@@H]1Oc1ccc(C#N)c(F)c1` [Example 195], the IC50 is 0.0001 to 0.01 µM.

Still in this experiment, the particulars now being: hTRPV4 in BHK/AC9 cells, FLIPR calcium signal, agonist at EC80; reported as range class; read-out: IC50.
Regarding `N#Cc1ccc(O[C@H]2CN(S(=O)(=O)c3ccc(C(F)(F)F)nc3Cl)C[C@@]2(O)CO)cc1F` [Example 100, 4-(((3S,4R)-1-((2-chloro-6-(trifluoromethyl)pyridin-3-yl)sulfonyl)-4-hydroxy-4-(hydroxymethyl)pyrrolidin-3-yl)oxy)-2-fluorobenzonitrile], the IC50 is 0.0001 to 0.01 µM. Still for that read-out and setting: the same measure for `N#Cc1ccc(O[C@H]2CN(S(=O)(=O)c3ccc(CC(F)(F)F)cc3)C[C@@]2(O)CO)cc1F` [Example 111, 2-fluoro-4-(((3S,4R)-4-hydroxy-4-(hydroxymethyl)-1-((4-(2,2,2-trifluoroethyl)phenyl)sulfonyl)pyrrolidin-3-yl)oxy)benzonitrile]: 0.01 to 0.1 µM; for `C[C@@H](O)[C@]1(O)CN(S(=O)(=O)c2ccc(OC(F)(F)F)nc2)C[C@@H]1Oc1ccc(C#N)c(F)c1` [Example 208, 2-fluoro-4-(((3S,4R)-4-hydroxy-4-((R)-1-hydroxyethyl)-1-((6-(trifluoromethoxy)pyridin-3-yl)sulfonyl)pyrrolidin-3-yl)oxy)benzonitrile]: 0.01 to 0.1 µM; for `N#Cc1cc(Cl)ccc1S(=O)(=O)N1C[C@H](Oc2cc(F)c(F)cc2F)[C@](O)(CO)C1` [Example 24, 5-chloro-2-(((3R,4S)-3-hydroxy-3-(hydroxymethyl)-4-(2,4,5-trifluorophenoxy)pyrrolidin-1-yl)sulfonyl)benzonitrile]: 0.0001 to 0.01 µM.

With `N#Cc1ncc(O[C@H]2CN(S(=O)(=O)c3ccc(C(F)(F)F)cc3C#N)C[C@@]2(O)CO)cn1` [Example 13, 5-(((3S,4R)-1-((2-cyano-4-(trifluoromethyl)phenyl)sulfonyl)-4-hydroxy-4-(hydroxymethyl)pyrrolidin-3-yl)oxy)pyrimidine-2-carbonitrile], the IC50 lay within 0.01 to 0.1 µM. Still for that read-out and setting: for `Cc1ccc(S(=O)(=O)N2C[C@H](Oc3ccc(C#N)c(F)c3)[C@](O)(CO)C2)c(Cl)c1` [Example 78, 4-(((3S,4R)-1-((2-chloro-4-methylphenyl)sulfonyl)-4-hydroxy-4-(hydroxymethyl)pyrrolidin-3-yl)oxy)-2-fluorobenzonitrile] the value was 0.0001 to 0.01 µM. Consider `Cc1nn(C)c(S(=O)(=O)N2C[C@H](Oc3ccc(C#N)c(F)c3)[C@](O)(CO)C2)c1Cl` [Example 124, 4-(((3S,4R)-1-((4-chloro-1,3-dimethyl-1H-pyrazol-5-yl)sulfonyl)-4-hydroxy-4-(hydroxymethyl)pyrrolidin-3-yl)oxy)-2-fluorobenzonitrile], for which the IC50 was in the range of 0.1 to 1 µM.

Take `N#Cc1ccc(O[C@H]2CN(S(=O)(=O)c3ccc(Cl)cn3)C[C@@]2(O)CN)cc1F` [Example 233, 4-(((3S,4S)-4-(aminomethyl)-1-((5-chloropyridin-2-yl)sulfonyl)-4-hydroxypyrrolidin-3-yl)oxy)-2-fluorobenzonitrile, Hydrochloride]: the IC50 was in the range of 0.01 to 0.1 µM. In the case of `N#Cc1ccc(O[C@H]2CN(S(=O)(=O)c3ccc(Cl)cc3C#N)C[C@@]23CNC(=O)O3)cc1F` [Example 254, 4-(((5S,9S)-7-((4-chloro-2-cyanophenyl)sulfonyl)-2-oxo-1-oxa-3,7-diazaspiro[4.4]nonan-9-yl)oxy)-2-fluorobenzonitrile], the IC50 was 0.01 to 0.1 µM. Regarding `Cn1ncc(Cl)c1S(=O)(=O)N1C[C@H](Oc2ccc(C#N)c(F)c2)[C@](O)(CN)C1` [Example 241, 4-(((3S,4S)-4-(aminomethyl)-1-((4-chloro-1-methyl-1H-pyrazol-5-yl)sulfonyl)-4-hydroxpyrrolidin-3-yl)oxy)-2-fluorobenzonitrile, 2,2,2-trifluoroacetate], the IC50 lay in the range of 0.01 to 0.1 µM. Still for that read-out and setting: for `N#Cc1ccc(O[C@H]2CN(S(=O)(=O)c3ccc(C(F)(F)F)cc3Cl)C[C@@]2(O)CO)cc1` [Example 49, 4-(((3S,4R)-1-((2-chloro-4-(trifluoromethyl)phenyl)sulfonyl)-4-hydroxy-4-(hydroxymethyl)pyrrolidin-3-yl)oxy)benzonitrile] the value was 0.01 to 0.1 µM; for `N#Cc1cc(Cl)ccc1S(=O)(=O)N1C[C@H](Oc2cc(F)c(F)c(F)c2)[C@](O)(CO)C1` [Example 22, 5-chloro-2-(((3R,4S)-3-hydroxy-3-(hydroxymethyl)-4-(3,4,5-trifluorophenoxy)pyrrolidin-1-yl)sulfonyl)benzonitrile], 0.0001 to 0.01 µM. On the same count and under the same terms, the same measure for `O=S(=O)(c1ccc(Cl)cc1Cl)N1C[C@H](Oc2ccc(C(F)(F)F)nc2)[C@](O)(CO)C1` [Example 35, (3R,4S)-1-((2,4-dichlorophenyl)sulfonyl)-3-(hydroxymethyl)-4-((6-(trifluoromethyl)pyridin-3-yl)oxy)pyrrolidin-3-ol]: 0.01 to 0.1 µM. For the molecule `N#Cc1ccc(O[C@H]2CN(S(=O)(=O)c3ccccc3C#N)C[C@@]2(O)CO)cc1F` [Example 61, 4-(((3S,4R)-1-((2-cyanophenyl)sulfonyl)-4-hydroxy-4-(hydroxymethyl)pyrrolidin-3-yl)oxy)-2-fluorobenzonitrile], the IC50 is 0.0001 to 0.01 µM. On the same count and under the same terms, the same measure for `Cc1ccc(S(=O)(=O)N2C[C@H](Oc3cc(F)c(C#N)cc3OCC(C)C)[C@](O)(CO)C2)nn1` [Example 188, 2-fluoro-4-(((3S,4R)-4-hydroxy-4-(hydroxymethyl)-1-((6-methylpyridazin-3-yl)sulfonyl)pyrrolidin-3-yl)oxy)-5-isobutoxybenzonitrile]: 0.01 to 0.1 µM; for `N#Cc1cc(Cl)ccc1S(=O)(=O)N1C[C@H](Oc2ccc(C(F)(F)F)cc2)[C@@](O)(CO)C1` [Example 152, 5-chloro-2-(((3S,4S)-3-hydroxy-3-(hydroxymethyl)-4-(4-(trifluoromethyl)phenoxy)pyrrolidin-1-yl)sulfonyl)benzonitrile]: 0.0001 to 0.01 µM; for `N#Cc1cc(OCC(F)(F)F)c(O[C@H]2CN(S(=O)(=O)c3ccc(C(F)(F)F)cc3C#N)C[C@@]2(O)CO)cc1F` [Example 157, 4-(((3S,4R)-1-((2-cyano-4-(trifluoromethyl)phenyl)sulfonyl)-4-hydroxy-4-(hydroxymethyl)pyrrolidin-3-yl)oxy)-2-fluoro-5-(2,2,2-trifluoroethoxy)benzonitrile]: 0.0001 to 0.01 µM.

In the case of `N#Cc1ccccc1S(=O)(=O)N1C[C@H](Oc2ccc(C(F)(F)F)cc2)[C@](O)(CO)C1` [Example 56, 2-(((3R,4S)-3-hydroxy-3-(hydroxymethyl)-4-(4-(trifluoromethyl)phenoxy)pyrrolidin-1-yl)sulfonyl)benzonitrile], the IC50 fell in the range of 0.01 to 0.1 µM.

On to `N#Cc1ccc(O[C@H]2CN(S(=O)(=O)c3ccc(C(F)(F)F)cc3C#N)C[C@@]2(O)CO)cn1` [Example 69, 5-(((3S,4R)-1-((2-cyano-4-(trifluoromethyl)phenyl)sulfonyl)-4-hydroxy-4-(hydroxymethyl)pyrrolidin-3-yl)oxy)picolinonitrile], for which the IC50 fell in the range of 0.01 to 0.1 µM.

For the molecule `Cc1ccc(S(=O)(=O)N2C[C@H](Oc3ccc(C#N)c(F)c3)[C@](O)(CO)C2)cc1F` [Example 118, 2-fluoro-4-(((3S,4R)-1-((3-fluoro-4-methylphenyl)sulfonyl)-4-hydroxy-4-(hydroxymethyl)pyrrolidin-3-yl)oxy)benzonitrile], the IC50 lay in the range of 0.01 to 0.1 µM.

With `N#Cc1cc(C(F)(F)F)ccc1S(=O)(=O)N1C[C@H](Oc2ccc(OC(F)(F)F)cc2)[C@](O)(CO)C1` [Example 50, 2-(((3R,4S)-3-hydroxy-3-(hydroxymethyl)-4-(4-(trifluoromethoxy)phenoxy)pyrrolidin-1-yl)sulfonyl)-5-(trifluoromethyl)benzonitrile], the IC50 lay in the range of 0.0001 to 0.01 µM. As to `N#Cc1ccc(O[C@H]2CN(S(=O)(=O)c3ccc(C(F)(F)F)cc3C#N)C[C@@]2(O)CO)cc1C(F)(F)F` [Example 11, 4-(((3S,4R)-1-((2-cyano-4-(trifluoromethyl)phenyl)sulfonyl)-4-hydroxy-4-(hydroxymethyl)pyrrolidin-3-yl)oxy)-2-(trifluoromethyl)benzonitrile], the IC50 was 0.01 to 0.1 µM. On to `N#Cc1cc(C(F)(F)F)ccc1S(=O)(=O)N1C[C@H](Oc2ccc3nonc3c2)[C@](O)(CO)C1` [Example 7, 2-(((3R,4S)-4-(benzo[c][1,2,5]oxadiazol-5-yloxy)-3-hydroxy-3-(hydroxymethyl)pyrrolidin-1-yl)sulfonyl)-5-(trifluoromethyl)benzonitrile], for which the IC50 is 0.0001 to 0.01 µM. The same measure, in the same setting: the same measure for `N#Cc1cc(OCC(F)(F)F)c(O[C@H]2CN(S(=O)(=O)c3ccc(C(F)(F)F)nc3)C[C@@]2(O)CO)cc1F` [Example 175, 2-fluoro-4-(((3S,4R)-4-hydroxy-4-(hydroxymethyl)-1-((6-(trifluoromethyl)pyridin-3 yl)sulfonyl)pyrrolidin-3-yl)oxy)-5-(2,2,2-trifluoroethoxy) benzonitrile]: 0.01 to 0.1 µM; for `N#Cc1cc(F)ccc1S(=O)(=O)N1C[C@H](Oc2ccc(Cl)cc2)[C@@](O)(CO)C1` [Example 147, 2-(((3S,4S)-4-(4-chlorophenoxy)-3-hydroxy-3-(hydroxymethyl)pyrrolidin-1-yl)sulfonyl)-5-fluorobenzonitrile]: 0.01 to 0.1 µM; for `COc1cc(Cl)ccc1O[C@H]1CN(S(=O)(=O)c2ccc(C(F)(F)F)cc2C#N)C[C@@]1(O)CO` [Example 48, 2-(((3R,4S)-4-(4-chloro-2-methoxyphenoxy)-3-hydroxy-3-(hydroxymethyl)pyrrolidin-1-yl)sulfonyl)-5-(trifluoromethyl)benzonitrile]: 0.01 to 0.1 µM.
